{"source": "patent US12048714B2", "about": "“Products and methods for organ protection with noble nanoparticles” (UCHICAGO ARGONNE, LLC, priority 2020, dated 2024)", "key": {"[1]": {"test": "Ex situ reduction of gold precursors by NADH to Au NPs, monitored by UV-vis spectra", "conditions": "for formation of Au NPs / reduction to Au0 when mixed with NADH: gold precursor mixed with NADH, ex situ", "experimental": "Gold (III) chloride (AuCl3) and cofactors, NADH, NADPH and ATP, were purchased from Sigma/Aldrich (St. Louis, MO). Paraformaldehyde/glutaraldehyde fixative solution was purchased from Electron Microscopy Sciences (Hatfield, PA). Gold NPS were formed through reduction of the AuCl3 by cofactors. Briefly, 100 μM NADH solution in PBS, pH 7.4, was placed in a cuvette and mixed with aliquots of AuCl3 in the same buffer to achieve 4:1, 2:1, and equimolar NADH/precursor ratios, at room temperature under constant stirring. Oxidation of NADH and formation of Au NPs were recorded at 340 nm and 520 nm, respectively, by UV-vis spectra using CARY-50 spectrophotometer.\nAuCl3 was chosen as a precursor due to higher electron sinking capacity of Au (III) and higher stability as compared to Au(I) that can transform in vivo into Au(III) (Thakor et al., Nano Lett, 2011, 11: 4029-4036)."}, "[2]": {"system": "living acute brain sections", "test": "In-situ gold nanoparticle biosynthesis in hypoxic living acute brain sections (staining, SAXS/WAXS, TEM)", "format": "cell-based, mice C57BL/6J", "experimental": "All animal procedures and the brain slice preparation procedures were performed in accordance with the Institutional Animal Care and Use Committee at the University of Chicago. Experimental mice C57BL/6J (male, 17 days old, n=2) were anesthetized by intraperitoneal injection of ketamine-xylazine, decapitated, and had their brains quickly removed. The brains were placed to the ice-cold “cut” artificial cerebrospinal fluid (ACSF) solution (containing the following, in mM: 3 KCl, 26 NaHCO3, 1 NaH2PO4, 0.5 CaCl2), 3.5 MgSO4, 25 dextrose, 123 sucrose) for quick, less than 5 min, slicing on vibratome at a thickness of 450 μm. The sections then were placed into an oxygenated incubation ACSF solution (containing the following, in mM: 123 NaCl, 3 KCl, 26 NaHCO3, 1 NaH2PO4, 2 CaCl2), 6 MgSO4, 25 dextrose) for 40 min, maintained at 32-36° C. (Sadovsky et al., J Neurosci, 2013, 33:14048-676). Tissue was left to rest at room temperature for 30 min before hypoxic induction. Hypoxia was induced in brain slices (i.e., living acute brain sections) in an oxygen-deprived chamber for 5 min, while their opposite hemisphere counterparts were used as normally oxygenated controls.\nThree aliquots of aqueous AuCl3 were added to oxygen-deprived and oxygenated (control) brain slices to reach 100 μM-10 mM final concentrations of the precursor, incubated for 5 min, thoroughly rinsed (to ensure removal of precursor excess), and fixed using 2% glutaraldehyde+2% paraformaldehyde in 0.1M phosphate buffer, pH 7.4, and then stored in the same fixing solution at +5° C. before imaging and analyses.\nBefore the beam experiment, brain slices were removed from the ACSF solution, and mounted by sealing them between two thin glass cover slides (Fisherfinest). In situ small-angle X-ray scattering (SAXS) and wide angle X-ray scattering (WAXS) (SAXS/WAXS) measurements were carried out at beamline 12-ID-B of the Advanced Photon Source (APS), Argonne National Laboratory. In situ SAXS data were analyzed by custom-built software that is run on Matlab after standard data correction including background correction.\nTo isolate Au NPs, fixed brain slices were freeze-dried and mechanically grinded down. Then the NPs were extracted by DI water followed by separation of the biological debris via centrifugation (2000 rpm for 10 min). The NPs-containing supernatant were dropped onto an Ultrathin Carbon Cu transmission electron microscopy (TEM) grid with the Formvar pre-removed in toluene. Samples were allowed to set for about 1 hour and then rinsed by DI water. TEM analysis of the NPs was performed with a JEM-2100F field emission electron microscope (JEOL LTD, Tokyo, Japan) operated at 200 kV.\nCoronal 450 μm thick sections of the mouse brain were isolated and prepared by a technique that allows maintaining the integrity of the isolated brain functions for sufficient experimental time-lapse, as depicted in FIGS. 4A-D. (See Sadovsky et al., J Neurosci, 2013, 33: 14048-U14676). The prepared living brain slices were incubated in a chamber with oxygenated ACSF solution (containing the following, in mM: 123 NaCl, 3 KCl, 26 NaHCO3, 1 NaH2PO4, 2 CaCl2), 6 MgSO4, 25 dextrose) for 40 min, maintained at 32-36° C. (Sadovsky et al., J Neurosci, 2013, 33: 14048-14676). Tissue was left to rest at room temperature for 30 min before hypoxic induction. Hypoxia was induced in brain slices in an oxygen-deprived chamber for 5 min, while their opposite hemisphere counterparts were used as normally oxygenated controls. […]"}}, "note": "“Also recorded” adds a separate entry of the source."}
{"molecule": "O=C([O-])CC([S-])C(=O)[O-].[Au+].[Na+].[Na+]", "note": "(stereo not drawn) [myochrysine, reference compound]", "values": [{"measurement": "formation of Au NPs / reduction to Au0 when mixed with NADH", "setting": "[1]", "result": "yielded no Au NPs"}]}
{"molecule": "Gold (III) chloride [AuCl3]", "values": [{"measurement": "time of reaction after which pink color was detected by the naked eye", "setting": "[1]; AuCl3/NADH molar ratio 1:4", "result": 20, "unit": "min"}, {"measurement": "time to appearance of new peak at 520 nm characteristic for Au NPs", "setting": "[1]; AuCl3/NADH molar ratio 1:4", "result": "~7", "unit": "min"}, {"measurement": "oxidation of NADH (peak at 340 nm)", "setting": "[1]; AuCl3/NADH molar ratio 1:4, NADH aqueous solution, UV-vis", "result": "immediate drop of the intensity of peak at 340 nm"}, {"measurement": "staining indicative of Au NPs in brain slices", "setting": "[2]; hypoxic slices, 100 μM precursor, 5 min incubation", "result": "revealed staining localized mainly in the outer regions of the brain section; also recorded: pink staining mainly in the outer regions of the brain section"}, {"measurement": "formation of Au NPs / staining in brain slices", "setting": "[2]; hypoxic slices, 10 mM precursor", "result": "significant dark staining"}, {"measurement": "formation of Au NPs / staining in brain slices", "setting": "[2]; hypoxic slices, 10 mM precursor, listed as Au(III) precursor", "result": "formation of Au NPs took place only in hypoxic brain slices"}, {"measurement": "formation of Au NPs / staining in brain slices", "setting": "[2]; oxygenated (control) brain slices exposed to precursor", "result": "preserves its natural color"}, {"measurement": "formation of Au NPs / staining in brain slices", "setting": "[2]; oxygenated (control) brain slices exposed to precursor, listed as Au(III) precursor", "result": "No Au NPs were detected"}]}
{"molecule": "[Cl][Au]", "note": "[AuCl, gold monochloride]", "values": [{"measurement": "formation of Au NPs / reduction to Au0 when mixed with NADH", "setting": "[1]", "result": "reduced by NADH to Au^0"}]}
{"molecule": "OC[C@H]1O[C@H]([S-])[C@H](O)[C@@H](O)[C@@H]1O.[Au+]", "note": "[solganal, reference compound]", "values": [{"measurement": "formation of Au NPs / reduction to Au0 when mixed with NADH", "setting": "[1]", "result": "yielded no Au NPs"}]}
{"molecule": "CC(=O)OC[C@H]1O[C@@H]([S-])[C@H](OC(C)=O)[C@@H](OC(C)=O)[C@@H]1OC(C)=O.CCP(CC)CC.[Au+]", "note": "[auranofin, reference compound]", "values": [{"measurement": "formation of Au NPs / reduction to Au0 when mixed with NADH", "setting": "[1]", "result": "yielded no Au NPs"}]}
